The source of these data is patent US6369057B1, “Quinoxalines, processes for their preparation and their use” (Aventis Pharma Deutschland GmbH, priority 1991, dated 2002).

Data set [1] deals with HIV. Briefly: Test of preparations against HIV in cell culture (T-cell culture assay). It is filed as cell-based. Particulars: Human immunodeficiency virus 1, 72 h; lowest concentration where no giant cells were observed; HIV-infected lymphocytes from donor blood, 3 days at 37° C.
Data set [2] concerns the target T1, HIV reverse transcriptase (RT) (Human immunodeficiency virus type 1 group M subtype B, UniProt P03366).
T1 construct: The enzyme RT (from HIV cloned in E. coli); purchased HT-Biotechnology Ltd, Cambridge, UK; host or cells: E. coli
Briefly: Assay for HIV reverse transcriptase inhibition (scintillation proximity assay). Particulars: RT from HIV cloned in E. coli; SPA, 60 minutes (37° C.); read-out: Reverse Transcriptase Assay IC50 (converted). It counts as biochemical. (In general: Scintillation proximity formats need no separation of bound from free tracer.)

Usually melting point stands for the temperature of the solid-liquid transition. One may read the IC50 as the point on the concentration scale where inhibition reaches its midpoint. Compound `CC=CCN1c2cc(Cl)ccc2NC(=O)[C@@H]1C` [VII, (3S)-6-Chloro-3-methyl-4-N-(2-buten-1-yl)-3,4-dihydroquinoxalin-2(1H)-one] showed a melting point of 87 to 88 °C. Besides, the MIC in data set [1] was below 0.16 µg/mL. For the same compound, the IC50 in data set [2] was 0.399 µM.
`C=COC(=O)N1c2cc(Cl)ccc2NC(=O)[C@@H]1C` [XIV, (3S)-6-Chloro-3-methyl-4-N-(vinyloxycarbonyl)-3,4-di-hydroquinoxalin-2(1H)-one] showed a melting point of 177 to 179 °C. The same compound returned an MIC in data set [1] below 0.16 µg/mL. Further, the IC50 in data set [2] was 0.6 µM.
In the same order, the values of `C=C(C)OC(=O)N1c2cc(Cl)ccc2NC(=S)[C@@H]1C` [XXIII, (3S)-6-Chloro-4-N-(isopropenyloxycarbonyl)-3-methyl-3,4-dihydroquinoxaline-2(1H)-thione] are 148 to 150 °C, below 0.01 µg/mL and 0.0842 µM.
